In publication doi:10.1101/2021.06.06.447270v1 (biorxiv, 2021):

Target: hCD36ecto (CD36ecto; human CD36 ectodomain) (Homo sapiens, UniProt P16671)
Assay: isothermal titration calorimetry
Assay type: binding

Chain of hCD36ecto (CD36ecto; human CD36 ectodomain) (P16671 30-439 limits assumed): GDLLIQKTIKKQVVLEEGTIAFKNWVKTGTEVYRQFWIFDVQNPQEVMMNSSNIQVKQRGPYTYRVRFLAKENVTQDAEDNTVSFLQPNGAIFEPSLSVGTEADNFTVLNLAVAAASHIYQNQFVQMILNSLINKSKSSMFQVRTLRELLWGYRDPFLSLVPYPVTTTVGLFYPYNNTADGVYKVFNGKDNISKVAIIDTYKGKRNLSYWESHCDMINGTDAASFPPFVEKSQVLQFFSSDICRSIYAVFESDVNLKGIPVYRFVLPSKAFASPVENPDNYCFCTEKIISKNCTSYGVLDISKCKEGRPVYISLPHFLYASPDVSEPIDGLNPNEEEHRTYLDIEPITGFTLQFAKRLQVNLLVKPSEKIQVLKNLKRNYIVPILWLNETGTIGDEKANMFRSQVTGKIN

- Kd: 1.26 ± 0.24 µM
Compound: C=CC1=C(C)C2=Cc3c(C=C)c(C)c4[n]3[Fe]([Cl])[n]3c(c(C)c(CCC(=O)O)c3=CC3=NC(=C4)C(C)=C3CCC(=O)O)=CC1=N2 [hemin]
